The results in this text go back to paper PMC12246756 (Frontiers in Pharmacology, 2025).

The test system of test [1] is normal human embryonic kidney cells (HEK-293). Kind of test: Sulforhodamine B (SRB) assay, normal cells HEK-293. The class given is cell-based. The conditions noted are these: HEK293, 48 h, normal cell line, mean ± SD (n = 3). The text has this:
(§1) Roswell Park Memorial Institute (RPMI)-1640 medium, Dulbecco’s modified eagle medium high glucose (DMEM; Gibco) supplemented with 10% Fetal Bovine Serum (FBS; Gibco, and 1% antibiotic-antimycotic (Gibco; Anti-Anti 100x), phosphate-buffered saline (PBS; Gibco), 0.25% trypsin (Gibco), sodium pyruvate (Sigma-Aldrich), HEPES (Gibco). Human cancer cell lines A549 (lung carcinoma), MCF-7 (breast carcinoma), MDAMB-231 (breast carcinoma), A375 (melanoma), and normal human embryonic kidney cells (HEK-293) were taken from Dr. Sheikh Tasduq Abdullah and Dr. Boobalan Gopu (CSIR-IIIM).
(§2) Their activity was tested against human cancer cell lines A549 (lung carcinoma), MCF-7 (breast carcinoma), MDAMB-231 (breast carcinoma), and A375 (melanoma). The selectivity index (SI) was calculated against normal human embryonic kidney cells (HEK-293) to determine cytotoxic selectivity. The cells (7 × 10^3 cells/well) were seeded on 96 well plates, followed by overnight incubation. Multiple concentrations (50 µM, 20 µM, 10 µM, 5 µM, and 1 µM) of compounds were used to treat the cells, except for control wells that contained only cells with media. After 48 h of incubation, the cells attached to wells were fixed with 50 µL of chilled 50% TCA, and the plate was kept at 4°C for 1 h, as described previously ([Malik et al., 2023]; [Kumar et al., 2024]). The plate was washed (3–4 times) with distilled water (250 µL/well) and air-dried for 24 h. The next day, 100 µL of 0.4% SRB dye was added to each well, and the cells were incubated at room temperature for 1 h. The plate contents were discarded and washed 3 times with 1% glacial acetic acid (250 µL/well), followed by one last wash with distilled water and air drying for another 24 h. Subsequently, 100 µL of Tris base (10 mM, pH 10.5) was added to each well to dissolve the dye bound to fixed cells. The dissolved dye indicating growth inhibition was quantified by calculating optical density at 540 nm via microplate reader (Tecan infinite M200PRO, Switzerland). The IC50 values were calculated using GraphPad Prism Software Version 5.0. A favorable Selectivity Index (SI) is the most relevant parameter to detect anti-cancer potential in vitro as it indicates drug safety against cancer cells versus normal cells, efficacy of the drug, and selectivity. The selectivity index is calculated by using the formula. Selective Index=IC50 in Normal cells/IC50 in Cancerous cell lines

The subject of another test is A549 (lung carcinoma). Kind of test: Sulforhodamine B (SRB) assay, A549. Format: cell-based. The settings on record: Homo sapiens, A549, 48 h, read-out: IC50 (µM) A549.
Excerpt: as §1, §2

For a further test, the system named is A375 (melanoma). Kind of test: Sulforhodamine B (SRB) assay, A375. The conditions noted are these: Homo sapiens; for IC50: A-375, 48 h, read-out: IC50 (µM) A375. The class given is cell-based.
Excerpt: as §1, §2

In a further test the test system is MCF-7 (breast carcinoma). Kind of test: Sulforhodamine B (SRB) assay, MCF-7. Format: cell-based. The conditions noted are these: Homo sapiens, MCF7, 48 h, read-out: IC50 (µM) MCF-7.
Excerpt: as §1, §2

In test [2] the test system is MDA-MB 231 (breast carcinoma). Kind of test: Sulforhodamine B (SRB) assay, MDA-MB 231. Format: cell-based. The conditions noted are these: Homo sapiens, MDA-MB-231, 48 h, read-out: IC50 (µM) MDA-MB 231.
Excerpt: as §1, §2

Test [3] has as its system A375 cells. Kind of test: Colony formation assay. The class given is cell-based, human. As to the method:
A colony formation assay was performed to assess the ability of 3g to inhibit the reproductive and colony forming ability of A375 cells. The cells were seeded into a 6-well plate with a 1 × 10^3 cells/well density. Next day, the cells were treated with multiple concentrations of 3g, such as 30 µM, 20 µM, 10 µM and 1 µM, in fresh media for 48 h. The media was changed on alternate days till day 10, till untreated (negative control) became confluent. On day 10, the cells were washed with PBS, and colonies were observed under a microscope. The cells/colonies were fixed with 100% methanol for 20 min at 4°C and stained with 0.5% solution of crystal violet for 30 min at room temperature, as described previously ([Kumar et al., 2024]). Subsequently, the dye was removed from plates, and excess dye was rinsed by washing it with distilled water (3–5 times), followed by air drying. The colonies were counted using ImageJ software, and photographs were taken with a digital camera. The percentage of colonies formed was calculated using the formula mentioned below. Colony formation rate (%)=Number of colonies in treatment group/Number of colonies in control group×100

The subject of test [4] is A375 cells. Kind of test: Wound healing (cell scratch) assay. Format: cell-based, human. How it is done:
Cell scratch assay, also known as wound healing assay, was performed to evaluate the impact of 3g on migration of A375 cells. The cells were seeded into the 6-well plate with […] density. The next day, in fresh media, a horizontal scratch was administered in the 90% confluent monolayer using a sterile 200 µL tip, as described previously, with slight modification ([Kumar et al., 2024]). The cells were incubated for 48 h with multiple concentrations of 3g such as 30 µM, 20 µM, 10 µM and 1 µM. Wound healing was observed using a Digital Inverted Fluorescence Microscope (Life Technologies EVOS FLc). The percentage of wound healing was calculated as. Wound Closure (%)=[…]

Take `COC1=C(C(=O)C2CC2)C(c2c3c(c(OC)c(OC)c2OC)-c2ccc(OC)c(=O)cc2[C@@H](NC(C)=O)CC3)NC(=O)N1` (stereo partly drawn) [Compound 3j, N-((7S)-4-(5-(cyclopropanecarbonyl)-6-methoxy-2-oxo-1,2,3,4-tetrahydropyrimidin-4-yl)-1,2,3,10-tetramethoxy-9-oxo-5,6,7,9-tetrahydrobenzo [a]heptalen-7-yl) acetamide]: the IC50 in test [1] is 39 ± 0.79 µM; in the test on A549 (lung carcinoma), over 50 µM; with A375 (melanoma), over 50 µM; with MCF-7 (breast carcinoma), over 50 µM; in test [2] it was over 50 µM.
Take `CCOC(=O)C1=C(C(Cl)(Cl)Cl)NC(=O)NC1c1c2c(c(OC)c(OC)c1OC)-c1ccc(OC)c(=O)cc1[C@H](NC(C)=O)CC2` (stereo partly drawn) [Compound 3d, Ethyl 4-((R)-7-acetamido-1,2,3,10-tetramethoxy-9-oxo-5,6,7,9-tetrahydrobenzo [a]heptalen-4-yl)-2-oxo-6-(trichloromethyl)-1,2,3,4-tetrahydropyrimidine-5-carboxylate]: the concentration for half-maximal inhibition (IC50) in test [1] was 36.1 ± 1.79 µM; with A549 (lung carcinoma), over 50 µM; with A375 (melanoma) it was over 50 µM; with MCF-7 (breast carcinoma), 43.79 ± 0.33 µM; in test [2] it was over 50 µM.
For the molecule `COC1=C(C(=O)C2CC2)C(c2c3c(c(OC)c(OC)c2OC)-c2ccc(OC)c(=O)cc2[C@H](NC(C)=O)CC3)NC(=O)N1` (stereo partly drawn) [Compound 3i, N-((7R)-4-(5-(cyclopropanecarbonyl)-6-methoxy-2-oxo-1,2,3,4-tetrahydropyrimidin-4-yl)-1,2,3,10-tetramethoxy-9-oxo-5,6,7,9-tetrahydrobenzo [a]heptalen-7-yl) acetamide], the IC50 in test [1] was 39.5 ± 1.36 µM; in the test with A549 (lung carcinoma), over 50 µM; with A375 (melanoma), over 50 µM; with MCF-7 (breast carcinoma), over 50 µM.
Take `CCOC(=O)C1=C(C)NC(=N)NC1c1c2c(c(OC)c(OC)c1OC)-c1ccc(OC)c(=O)cc1[C@H](NC(C)=O)CC2` (stereo partly drawn) [Compound 3b, Ethyl 4-((R)-7-acetamido-1,2,3,10-tetramethoxy-9-oxo-5,6,7,9-tetrahydrobenzo [a]heptalen-4-yl)-2-imino-6-methyl-1,2,3,4-tetrahydropyrimidine-5-carboxylate]: the IC50 in test [1] was 38.3 ± 1.36 µM; in the test on A549 (lung carcinoma), over 50 µM; in the test with A375 (melanoma), over 50 µM; with MCF-7 (breast carcinoma), 44.7 ± 0.64 µM; in test [2] it was over 50 µM.
In the case of `CCOC(=O)C1=C(OCC)NC(=O)NC1c1c2c(c(OC)c(OC)c1OC)-c1ccc(OC)c(=O)cc1[C@H](NC(C)=O)CC2` (stereo partly drawn) [Compound 3h, ethyl 4-((R)-7-acetamido-1,2,3,10-tetramethoxy-9-oxo-5,6,7,9-tetrahydrobenzo [a]heptalen-4-yl)-6-ethoxy-2-oxo-1,2,3,4-tetrahydropyrimidine-5-carboxylate], the IC50 was 26.6 ± 2.65 µM in test [1]; over 50 µM with A549 (lung carcinoma); 35.2 ± 2.79 µM in the test with A375 (melanoma); 49.9 ± 2.72 µM with MCF-7 (breast carcinoma); over 50 µM in test [2].
Take `COc1c(OC)c2c(c(C3NC(=O)NC(C)=C3C(=O)Oc3ccccc3)c1OC)CC[C@@H](NC(C)=O)c1cc(=O)c(OC)ccc1-2` (stereo partly drawn) [Compound 3c, phenyl 4-((R)-7-acetamido-1,2,3,10-tetramethoxy-9-oxo-5,6,7,9-tetrahydrobenzo [a]heptalen-4-yl)-6-methyl-2-oxo-1,2,3,4-tetrahydropyrimidine-5-carboxylate]: the IC50 in test [1] is 35.6 ± 2.97 µM; with A549 (lung carcinoma), over 50 µM; with A375 (melanoma), over 50 µM; in the test with MCF-7 (breast carcinoma), 44.8 ± 0.68 µM; in test [2], over 50 µM.
Consider `CCOC(=O)C1=C(C(F)(F)C(F)(F)F)NC(=O)NC1c1c2c(c(OC)c(OC)c1OC)-c1ccc(OC)c(=O)cc1[C@H](NC(C)=O)CC2` (stereo partly drawn) [Compound 3f, Ethyl 4-((R)-7-acetamido-1,2,3,10-tetramethoxy-9-oxo-5,6,7,9-tetrahydrobenzo [a]heptalen-4-yl)-2-oxo-6-(perfluoroethyl)-1,2,3,4-tetrahydropyrimidine-5-carboxylate], for which the IC50 in test [1] is 17.8 ± 1.3 µM; in the test on A549 (lung carcinoma) it was over 50 µM; in the test with A375 (melanoma), 28.3 ± 2.19 µM; in the test with MCF-7 (breast carcinoma) it was 26.4 ± 2.79 µM; in test [2], 46.6 ± 0.86 µM.
In the same order, the values of `CCOC(=O)C1=C(c2cc(F)c(Cl)nc2Cl)NC(=O)NC1c1c2c(c(OC)c(OC)c1OC)-c1ccc(OC)c(=O)cc1[C@H](NC(C)=O)CC2` (stereo partly drawn) [Compound 3e, Ethyl 4-((R)-7-acetamido-1,2,3,10-tetramethoxy-9-oxo-5,6,7,9-tetrahydrobenzo [a]heptalen-4-yl)-6-(2,6-dichloro-5-fluoropyridin-3-yl)-2-oxo-1,2,3,4-tetrahydropyrimidine-5-carboxylate] are 40.3 ± 1.71 µM, over 50 µM, over 50 µM, 45.1 ± 0.73 µM and over 50 µM.
With `CCOC(=O)C1=C(C(F)(F)C(F)(F)F)NC(=O)NC1c1c2c(c(OC)c(OC)c1OC)-c1ccc(OC)c(=O)cc1[C@@H](NC(C)=O)CC2` (stereo partly drawn) [Compound 3g, Ethyl 4-((S)-7-acetamido-1,2,3,10-tetramethoxy-9-oxo-5,6,7,9-tetrahydrobenzo [a]heptalen-4-yl)-2-oxo-6-(perfluoroethyl)-1,2,3,4-tetrahydropyrimidine-5-carboxylate], the IC50 in test [1] is 15.8 ± 0.81 µM; with A549 (lung carcinoma), over 50 µM; in the test with A375 (melanoma) it was 10.3 ± 0.56 µM; with MCF-7 (breast carcinoma), 15.7 ± 0.39 µM; in test [2], 24.9 ± 2.7 µM. The “percentage of colony growth formation” value in the test with A375 cells [3] (20 µM, 48 h treatment, A375 cells, untreated control 100%) was determined as 37.5%. Further, in the test on A375 cells [3] (melanoma cells (abstract)), the “inhibition of colony formation” value is “up to 62.5%”. Moreover, the “percentage of wound closure” value in the test on A375 cells [4] (20 µM, 48 h, A375 cells, untreated control 84%) worked out at 69%. Also, the “reduction of migration potential” value with A375 cells [4] (melanoma cells (abstract)) was 69%. The inhibition at 20 µM in the test with A375 (melanoma) (A-375, read-out: growth inhibition) was found to be 60%.
With `CCOC(=O)C1=C(C)NC(=S)NC1c1c2c(c(OC)c(OC)c1OC)-c1ccc(OC)c(=O)cc1[C@H](NC(C)=O)CC2` (stereo partly drawn) [Compound 3a], the IC50 was 29.66 ± 0.07 µM in test [1]; over 50 µM with A549 (lung carcinoma); over 50 µM in the test on A375 (melanoma); 40.6 ± 0.91 µM in the test with MCF-7 (breast carcinoma); over 50 µM in test [2].
